In publication PMC11640836, “Aminomethylmorpholino Nucleosides as Novel Inhibitors of PARP1 and PARP2: Experimental and Molecular Modeling Analyses of Their Selectivity and Mechanism of Action” (International Journal of Molecular Sciences, 2024):

How the values were obtained:
PARP2 [1] = target: T1, PARP2 (Mus musculus, UniProt O88554); assay: PARP2 autopoly(ADP-ribosyl)ation (autoPARylation) enzyme assay with [32P]NAD+; type: biochemical, murine; settings: for remaining activity at 1000 µM: 5 min, 1 mM compound, autoPARylation reaction, read-out: Residual catalytic activity of PARP2 in the presence of a 1 mM compound; for IC50: 0.6 mM [32P]NAD+, means ±SDs of three independent experiments, read-out: IC50, PARP2 activity in the autoPARylation reaction
T1 construct: made in house; host or cells: insect cells
T1 sequence (O88554 whole entry): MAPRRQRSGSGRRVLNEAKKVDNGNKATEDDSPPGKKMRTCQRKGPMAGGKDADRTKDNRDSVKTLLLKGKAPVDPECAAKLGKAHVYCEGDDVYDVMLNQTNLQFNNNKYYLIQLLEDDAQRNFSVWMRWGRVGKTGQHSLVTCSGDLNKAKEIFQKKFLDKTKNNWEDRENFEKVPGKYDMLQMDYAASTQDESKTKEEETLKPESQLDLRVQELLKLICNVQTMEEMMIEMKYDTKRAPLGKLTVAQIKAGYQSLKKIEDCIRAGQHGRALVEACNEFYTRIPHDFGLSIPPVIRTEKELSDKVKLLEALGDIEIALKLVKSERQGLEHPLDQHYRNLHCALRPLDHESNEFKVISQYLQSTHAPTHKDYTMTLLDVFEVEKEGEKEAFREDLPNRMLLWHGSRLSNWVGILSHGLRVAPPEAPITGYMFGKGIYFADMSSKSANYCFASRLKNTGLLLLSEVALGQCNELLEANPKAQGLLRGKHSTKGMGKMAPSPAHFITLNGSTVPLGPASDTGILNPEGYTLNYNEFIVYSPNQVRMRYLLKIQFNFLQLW
Method: (§1) Human recombinant poly(ADP-ribose) polymerase 1 (PARP1) and murine poly(ADP-ribose) polymerase 2 (PARP2) were expressed in insect cells and purified as previously described. Radioactively labeled [^32P]NAD^+ was synthesized from [α-^32P]ATP, according to the previously developed method. The reaction of autopoly(ADP-ribosyl)ation was performed as follows. For PARP1, the reaction mixture contained 50 mM of Tris-HCl, a pH of 8.0, 10 mM of MgCl2, 150 mM of NaCl, 7 mM of β-mercaptoethanol, 2 A260/mL of activated DNA, 0.3 mM of [^32P]NAD^+, and 1 of the tested compounds. The reaction was initiated by adding PARP1 up to 200 nM, and the reaction mixtures were incubated at 37 °C for 2 min. For PARP2, the reaction mixture contained 50 mM of Tris-HCl, a pH of 8.0, 3 mM of spermine, 150 mM of NaCl, 7 mM of β-mercaptoethanol, 2 A260/mL of activated DNA, 0.6 mM of [^32P]NAD^+, and 1 of the tested compounds. The reaction was initiated by adding PARP2 up to 800 nM, and the reaction mixtures were incubated at 37 °C for 5 min. The tested compounds were added at six fixed concentrations, specified for each of them. The reaction was stopped by dropping 10 µL aliquots onto Whatman 1 filter papers soaked in 5% trichloroacetic acid (TCA). The filters were washed 4 times with 150 mL of 5% TCA and dried in the air after the removal of TCA with 90% ethanol. The introduction of radioactivity into the reaction product was quantified using a Typhoon FLA 9500 imager (GE Healthcare, Chicago, IL, USA). The half-maximal inhibitory concentration (IC50) values were determined using a six-point concentration response curve in three independent experiments.

PARP1 [2] = target: T2, PARP1 (Homo sapiens, UniProt P09874); assay: PARP1 autopoly(ADP-ribosyl)ation (autoPARylation) enzyme assay with [32P]NAD+; type: biochemical; settings: for Residual catalytic activity of PARP1 in the presence of a 1 mM compound: autoPARylation reaction; for IC50: 0.3 mM [32P]NAD+, means ±SDs of three independent experiments, read-out: IC50, PARP1 activity in the autoPARylation reaction
T2 construct: made in house; host or cells: insect cells
T2 sequence (P09874 whole entry): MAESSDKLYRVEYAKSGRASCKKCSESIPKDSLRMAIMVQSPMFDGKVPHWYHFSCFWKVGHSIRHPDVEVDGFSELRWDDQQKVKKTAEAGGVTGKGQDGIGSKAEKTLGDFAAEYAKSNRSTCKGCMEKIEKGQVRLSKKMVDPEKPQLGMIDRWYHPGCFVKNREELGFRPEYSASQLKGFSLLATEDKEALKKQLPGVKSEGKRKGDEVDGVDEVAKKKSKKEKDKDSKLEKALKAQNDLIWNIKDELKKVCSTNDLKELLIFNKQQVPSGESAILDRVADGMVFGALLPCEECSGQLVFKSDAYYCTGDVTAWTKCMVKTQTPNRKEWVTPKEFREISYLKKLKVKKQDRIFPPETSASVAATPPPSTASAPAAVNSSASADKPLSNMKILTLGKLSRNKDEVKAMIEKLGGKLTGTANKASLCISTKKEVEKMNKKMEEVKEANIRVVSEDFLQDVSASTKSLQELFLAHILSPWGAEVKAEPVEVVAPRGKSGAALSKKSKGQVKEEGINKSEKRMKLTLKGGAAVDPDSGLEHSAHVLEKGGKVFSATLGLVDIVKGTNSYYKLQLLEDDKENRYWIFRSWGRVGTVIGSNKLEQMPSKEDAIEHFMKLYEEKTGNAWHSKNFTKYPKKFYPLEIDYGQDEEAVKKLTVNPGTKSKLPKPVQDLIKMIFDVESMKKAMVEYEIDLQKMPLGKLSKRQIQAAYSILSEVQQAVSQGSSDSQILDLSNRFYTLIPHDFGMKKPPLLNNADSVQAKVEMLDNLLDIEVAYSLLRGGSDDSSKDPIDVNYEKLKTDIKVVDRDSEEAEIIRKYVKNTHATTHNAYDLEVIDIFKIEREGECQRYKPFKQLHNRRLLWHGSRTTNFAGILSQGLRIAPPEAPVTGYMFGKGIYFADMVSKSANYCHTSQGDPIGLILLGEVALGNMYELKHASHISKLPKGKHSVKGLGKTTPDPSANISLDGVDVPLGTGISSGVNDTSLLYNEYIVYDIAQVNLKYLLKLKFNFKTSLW
Method: as §1

PARP2 [3] = settings: cited from earlier work
PARP1 [4] = settings: cited from earlier work

Row | Compound | remaining activity at 1000 µM (PARP2 [1]) | Residual catalytic activity of PARP1 in the presence of a 1 mM compound (PARP1 [2]) | other results
1 | NC[C@@H]1CN(CC(=O)O)C[C@H](n2cnc3c(N)ncnc32)O1 [Compound 1] | > 30% | >30% | –
2 | Cc1cn([C@H]2CN(CC(=O)O)C[C@@H](CN)O2)c(=O)[nH]c1=O [Compound 2] | – | – | IC50 (PARP2 [1]): 100 ± 12 µM; IC50 (PARP1 [2]): 60 ± 14 µM
3 | NC[C@@H]1CN(CC(=O)O)C[C@H](n2cnc3c(=O)[nH]c(N)nc32)O1 [Compound 3] | > 30% | >30% | –
4 | NC[C@@H]1CN(CC(=O)O)C[C@H](n2ccc(N)nc2=O)O1 [Compound 4] | > 30% | >30% | –
5 | O=c1[nH]c(=O)n([C@@H]2O[C@H](CO)[C@@H](O)[C@H]2O)cc1I [Compound 5-I-Urd] | – | – | IC50 (PARP2 [3]): 27 µM; IC50 (PARP1 [4]): 49 µM
6 | NC[C@@H]1CN(CC(=O)O)C[C@H](n2ccc(=O)[nH]c2=O)O1 [Compound 5] | > 30% | >30% | –
7 | NC[C@@H]1CN(CC(=O)O)C[C@H](n2cc(I)c(=O)[nH]c2=O)O1 [Compound 6, 2′-aminomethylmorpholino glycine 5-I-uracyl nucleoside] | – | – | IC50 (PARP2 [1]): 142 ± 6 µM; IC50 (PARP1 [2]): 70 ± 12 µM
8 | NC[C@@H]1CNC[C@H](n2cnc3c(N)ncnc32)O1 [Compound 7] | > 30% | >30% | –
